According to paper PMC9973354 (mBio, 2022):
Values joined by “and” are separate entries in the source; they are usually repeats but may differ in a detail not shown here. Equal values may be shown once. Read-outs that look alike come from different tables or passages of the source.

What was measured:
[1] = test system: PA14 ΔfpvB ΔfoxA mutants; assay: Growth phenotypes of deletion mutants, ΔfpvB ΔfoxA; assay type: cell-based, Pseudomonas aeruginosa; details: 10 μg/mL ferrioxamine B, 10:90
From the text: PA14, ΔfpvA, ΔfpvB, and ΔfpvA ΔfpvB strains treated with TS (A) and DSX (B) in 10:90. Green indicates growth, and white indicates no growth. Growth is expressed as percent of control. The PA14 ΔfpvA ΔfpvB strain complemented with pHERD20T, fpvA, or fpvB treated with TS (C) and DSX (D) in 10:90. […] All experiments are averaged from three independent biological replicates. Blue indicates growth and white indicates no growth. (H) Summary of growth phenotypes of WT PA14 and combinations of single, double, triple, and quadruple deletion mutants in fpvA, fpvB, fiuA, and foxA. […] Green indicates growth, whereas no growth is indicated in white. […] Representative plates are shown.
If there were no transporters for a particular siderophore, the mutant would fail to grow due to iron restriction.

[2] = test system: PA14 ΔfpvA ΔfpvB ΔfiuA ΔfoxA pHERD20T-fpvB Y216T; assay: Growth of quadruple mutant expressing FpvB Y216T; assay type: cell-based, Pseudomonas aeruginosa; details: 10:90 + 2% arabinose
Experimental: Site-directed mutagenesis was used to confirm the docking predictions and to define the molecular determinants for ligand uptake through FpvB (Fig. 4C). We generated 17 single amino acid substitutions in FpvB and expressed each of them in trans in the quadruple ΔfpvA ΔfpvB ΔfiuA ΔfoxA mutant. Their ability to complement growth of the mutant in the presence of ferrichrome and ferrioxamine B and to restore TS susceptibility was assessed. […] The mutant transporters were tagged with a C-terminal FLAG tag to evaluate expression levels. FLAG-tagged FpvB mutants had WT levels of expression except for Y216T and W347V, which were expressed at 140% and 25% of WT, respectively.
The ΔfpvA ΔfpvB ΔfiuA ΔfoxA mutant was complemented with WT fpvA, fpvB, fiuA, and foxA in trans as controls (Fig. 4E).
MIC assays were conducted as previously described ([13], [14]). Overnight cultures were grown in LB from a glycerol stock at 37°C with shaking (200 rpm). Subcultures in 10:90 (1:100 dilution) were cultured for 4 h. Cells were adjusted to an optical density at 600 nm (OD600) of 0.1/500 in 10:90. All compounds were serially diluted 2-fold in dimethyl sulfoxide (DMSO) or H2O at 75× the final concentration. […] The next day, the OD600 was determined with a plate reader (Thermo Scientific) and normalized to percent of growth of the vehicle control after subtracting the OD600 from blank media.

[3] = molecular target: T1, FpvB R648C (Pseudomonas aeruginosa, UniProt A0A0H2ZFZ5, R648C); assay: Whole-cell fluorescence quenching, FpvB R648C in quadruple mutant; assay type: binding; details: FpvB R648C in quadruple mutant, two-site model
T1 sequence (A0A0H2ZFZ5 23-802 R648C): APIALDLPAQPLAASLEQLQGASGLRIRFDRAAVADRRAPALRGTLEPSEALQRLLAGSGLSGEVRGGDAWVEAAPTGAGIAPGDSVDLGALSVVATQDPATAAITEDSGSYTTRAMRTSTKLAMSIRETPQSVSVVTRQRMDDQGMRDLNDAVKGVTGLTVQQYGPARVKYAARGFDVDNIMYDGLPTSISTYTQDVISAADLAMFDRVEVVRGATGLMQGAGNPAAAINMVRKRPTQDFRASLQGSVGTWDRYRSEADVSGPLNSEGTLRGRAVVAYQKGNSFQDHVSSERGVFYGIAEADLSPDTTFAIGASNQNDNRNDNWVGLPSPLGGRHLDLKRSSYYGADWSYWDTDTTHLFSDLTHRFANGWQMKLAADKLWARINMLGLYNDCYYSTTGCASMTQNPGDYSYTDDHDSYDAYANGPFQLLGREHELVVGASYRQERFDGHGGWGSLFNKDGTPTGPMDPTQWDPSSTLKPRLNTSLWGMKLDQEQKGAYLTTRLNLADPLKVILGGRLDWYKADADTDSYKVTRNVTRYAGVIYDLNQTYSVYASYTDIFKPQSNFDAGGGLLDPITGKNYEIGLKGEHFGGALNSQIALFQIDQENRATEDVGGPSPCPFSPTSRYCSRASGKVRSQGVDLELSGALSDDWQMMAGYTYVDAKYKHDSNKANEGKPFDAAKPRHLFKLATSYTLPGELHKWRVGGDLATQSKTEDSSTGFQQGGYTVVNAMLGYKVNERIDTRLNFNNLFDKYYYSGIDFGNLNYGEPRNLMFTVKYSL
Experimental: Quenching assays with the two xenosiderophores were repeated for the quadruple TBDT mutant expressing WT FpvB, FpvB R191A R648C, or W347V R648C.
Cells were cultured overnight in LB with carbenicillin (200 μg/mL) at 37°C with shaking at 200 rpm. Cells were subcultured (1:200 dilution) in 10:90 plus 2% arabinose for 4 h without carbenicillin at 37°C with shaking at 200 rpm. Cells were harvested by centrifugation for 5 min and 6,000 × g and resuspended in sterile 1× phosphate-buffered saline (PBS) (pH 7.4); 1× PBS was made from a 10× stock (80 g NaCl, 2 g KCl, 26.8 g Na2 HPO4-7H2O, 2.4 g KH2PO4 in 1 L of deionized H2O) with 10 μM Alexa Fluor 594 C5 maleimide for microscopy or fluorescein-5-maleimide for fluorescence quenching and recovery assays and incubated in the dark at room temperature for 30 min on a shaking incubator at 37°C (200 rpm). Excess dye was quenched with 1 mM dithiothreitol (DTT) (Sigma) to stop the reaction. Cells were washed 3× with PBS. For fluorescence recovery assays, cells were incubated with 1× PBS plus 0.4% glucose at 37°C with shaking at 200 rpm. Glucose was prepared as a 20% stock (wt/vol) in 1× PBS and filter sterilized. Cells were spun down and washed 3× with 1× PBS and resuspended in 1× PBS for quenching assays and 1× PBS plus 0.4% glucose for fluorescence recovery assays.
For fluorescence quenching and recovery assays, cells were diluted to an OD600 of 0.1 for both types of assays, and 148 μL was added into wells of a 96-well black plate (Corning). Fluorescence was recorded for 5 min at 1-min intervals at 37°C (BioTek Neo; excitation, 494 nm; emission, 520 nm). After 5 min, 2 μL of each serial dilution for ferrioxamine-Fe^3+, ferrichrome-Fe^3+, and pyoverdine-Fe^3+ or DMSO for vehicle controls was added to each well. Fluorescence was recorded immediately for quenching assays and for 1 h at 1-min intervals for fluorescence recovery assays. Background fluorescence was subtracted from all fluorescence readings and 1-F/F0 was used to calculate the degree of quenching, where F0 is the initial fluorescence. Kd was calculated using GraphPad Prism using a one-site specific binding model or a two-site model. For fluorescence recovery assays, background was subtracted from all fluorescence readings and F/F0 expressed as a percent of control was plotted versus time.

`CC(=O)N(O)CCCCCNC(=O)CCC(=O)N(O)CCCCCNC(=O)CCC(=O)N(O)CCCCCN` [ferrioxamine B] was tested, and the “growth in the presence of compound” value [1] was “failed to grow”, the “growth in the presence of siderophore” value [2] was “prevented growth” and the Kd ([3]; read-out: Kd1 (converted)) was 0.178 µM and 0.17 µM. The Kd ([3]; read-out: Kd2 (converted)) was 660 µM and 600 µM.
